Structures are written as SMILES.

The target in one experiment is T1, Aurora A (Homo sapiens, UniProt O14965).
T1 construct: C-terminally Histidine4 (His4)-tagged Aurora A full-length protein
T1 sequence (O14965 1-403): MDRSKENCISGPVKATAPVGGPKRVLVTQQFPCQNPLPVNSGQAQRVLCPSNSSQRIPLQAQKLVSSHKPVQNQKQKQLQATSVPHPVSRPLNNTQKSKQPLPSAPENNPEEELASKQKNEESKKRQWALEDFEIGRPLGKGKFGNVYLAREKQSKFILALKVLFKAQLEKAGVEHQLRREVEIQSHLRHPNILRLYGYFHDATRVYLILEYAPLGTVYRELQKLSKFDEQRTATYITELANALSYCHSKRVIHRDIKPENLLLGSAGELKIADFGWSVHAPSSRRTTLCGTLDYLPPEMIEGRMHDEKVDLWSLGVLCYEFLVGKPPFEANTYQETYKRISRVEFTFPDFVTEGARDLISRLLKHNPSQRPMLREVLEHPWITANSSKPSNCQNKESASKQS
Kind of experiment: IC50 determination for inhibitors of Aurora A (96 MTP-ELISA). The class given is biochemical. Particulars: His4-tagged full-length Aurora A 250 ng/ml, PKB-GSK2 200 nM, ATP 4 μM, 90 min at room temperature; read-out: IC50 Aurora A kinase inhibition. The source says: IC50 Determination for Inhibitors of Aurora A
Aurora A is a serine threonine kinase involved in spindle assembly and chromosome segregation.
The assay is a typically ELISA-type assay where biotinylated substrate (PKB-GSK2) is phosphorylated. Phosphorylation is detected by peroxidase (POD) labelled polyclonal antibody (PAK<M-Ig>S-IgG-POD) and phosphopeptide monoclonal antibody (Mab) (MAK<P-GSK>M-27E5-IgG). The assay is validated for IC50-determination.
Aurora A-His-4 C-terminally Histidine4 (His4)-tagged Aurora A full-length protein, stock solution 0.7 mg/ml, final conc.: 250 ng/ml
PKB-GSK2 biotinylated peptide derived from human GSK3-alpha sequence (Biotin-SGRARTSSFAEPGG-CONH2), stock solution 600 μM, final conc.: 200 nM
ATP Adenosine-5′-triphosphate 1 mM, diluted in kinase buffer, (Roche Diagnostics GmbH, Cat. No.: 127531-001,), final conc.: 4 μM
Kinase buffer 50 mM TRIS, 10 mM MgCl2, 1 mM DTT, 0.1% Tween 20, pH 7.8
This assay is performed in 96-well format for IC50 determination with 5 samples (each with 8 concentrations by twofold testing), 100 μl incubation volume and the following plate layout:
Step/Action 1. Sample preparation: add 24 μl per well samples (descending sequence) diluted in kinase buffer to assay plate (final conc. for DMSO 1%). 2. Add directly 16 μl Aurora-A-his-4 diluted in kinase buffer to assay plate. 3. Add directly 40 μl per well PKB-GSK2/ATP mixture to assay plate, (final conc.: Aurora A=250 ng/ml, GSK2=200 nM, ATP=4 μM). Negative control: without ATP. 4. Incubate assay plate for exactly 90 min at room temperature. 5. Stop reaction by adding 20 μl EDTA in all wells. 6. Wash assay plate 3× with 200 μl washing buffer per well. 7. Add 100 μl MAK<P-GSK>M27E5-IgG (1:10000) and PAK<M-Ig>S-IgG-POD (1:6000) dissolved in 3% BSA/PBS-T to assay plate per well. 8. Incubate assay plate for 60 min at room temperature. 9. Wash assay plate 3× with 200 μl washing buffer per well 10. Add 100 μl ABTS solution to assay plate per well, incubate for approx. 4 min at RT on MTP shaker. 11. Measure absorption at 405/492 nm. 12. Calculate % inhibition as: (1−(Esample−ENC)/(EPC−ENC))×100 13. Calculate IC50 using a non-linear curve fit (XLfit software (ID Business Solution Ltd., Guilford, Surrey, UK))
A general note: ELISA stands for enzyme-linked immunosorbent assay.

Another experiment relates to HCT 116 cells. Briefly: CellTiter-Glo assay in HCT 116 cells (antiproliferative activity). The class given is cell-based. Particulars: HCT 116 human colon carcinoma cells, 5 days (120 h) incubation, CellTiter-Glo luminescence. The source says: Antiproliferative Activity
CellTiter-Glo™ Assay in HCT 116 Cells
The CellTiter-Glo™ Luminescent Cell Viability Assay (Promega) is a homogeneous method of determining the number of viable cells in culture based on quantitation of the ATP present, which signals the presence of metabolically active cells.
HCT 116 cells (human colon carcinoma, ATCC-No. CCI-247) were cultivated in RPMI 1640 medium with GlutaMAX™ I (Invitrogen, Cat-No. 61870-010), 2.5% Fetal Calf Serum (FCS, Sigma Cat-No. F4135 (FBS)); 100 Units/ml penicillin/100 μg/ml streptomycin (=Pen/Strep from Invitrogen Cat. No. 15140). For the assay the cells were seeded in 384 well plates, 1000 cells per well, in the same medium. The next day the test compounds were added in various concentrations ranging from 30 μM to 0.0015 μM (10 concentrations, 1:3 diluted). After 5 days the CellTiter-Glo™ assay was done according to the instructions of the manufacturer (CellTiter-Glo™ Luminescent Cell Viability Assay, from Promega). In brief: the cell-plate was equilibrated to room temperature for approximately 30 minutes and than the CellTiter-Glo™ reagent was added. The contents were carefully mixed for 15 minutes to induce cell lysis. After 45 minutes the luminescent signal was measured in Victor 2, (scanning multiwell spectrophotometer, Wallac).
Medium: RPMI 1640 with GlutaMAX™ I (Invitrogen, Cat-Nr. 61870), 5% FCS (Sigma Cat.-No. F4135), Pen/Strep (Invitrogen, Cat No. 15140).
HCT116 (ATCC-No. CCI-247): 1000 cells in 60 μl per well of 384 well plate (Greiner 781098, μClear-plate white)
After seeding incubate plates 24 h at 37° C., 5% CO2
2nd. Day: Induction (Treatment with Compounds, 10 Concentrations):
In order to achieve a final concentration of 30 μM as highest concentration 3.5 μl of 10 mM compound stock solution were added directly to 163 μl media. Then step e) of the dilution procedure described below, was followed.
In order to achieve the second highest to the lowest concentrations, a serial dilution with dilution steps of 1:3 was followed according to the procedure (a-e) as described here below: • for the second highest concentration add 10 μl of 10 mM stock solution of compound to 20 μl dimethylsulfoxide (DMSO) • dilute 8×1:3 (always 10 μl to 20 μl DMSO) in this DMSO dilution row (results in 9 wells with concentrations from 3333.3 μM to 0.51 μM) • dilute each concentration 1:47.6 (3.5 μl compound dilution to 163 μl media) • add 10 μl of every concentration to 60 μl media in the cell plate resulting in final concentration of DMSO: 0.3% in every well and resulting in 10 final concentration of compounds ranging from 30 μM to 0.0015 μM. • Each compound is tested in triplicate. • Incubate 120 h (5 days) at 37° C., 5% CO2 Analysis:
Add 30 μl CellTiter-Glo™ Reagent (prepared from CellTiter-Glo™ Buffer and CellTiter-Glo™ Substrate (lyophilized) purchased from Promega) per well, • shake 15 minutes at room temperature • incubate further 45 minutes at room temperature without shaking Measurement:
Victor 2 scanning multiwell spectrophotometer (Wallac), Luminescence mode (0.5 sec/read, 477 nm)
Determine IC50 using a non-linear curve fit (XLfit software (ID Business Solution Ltd., Guilford, Surrey, UK))
Background: In ATP-based viability assays light output follows the ATP content of the culture.

Consider `Cc1cc(-c2nc3cc4c(cc3[nH]2)NC(=O)C4(C)C)n[nH]1` [Example 5, 7,7-Dimethyl-2-(5-methyl-2H-pyrazol-3-yl)-5,7-dihydro-3H-imidazo[4,5-f]indol-6-one], for which the figures for the IC50 at Aurora A and in the experiment with HCT 116 cells were 10 to 500 nM and 100 to 10000 nM, respectively.

`CC(C)Cc1cc(-c2nc3cc4c(cc3[nH]2)C(C)(C)CC(=O)N4)[nH]n1` [Example 4, 2-(5-Isobutyl-2H-pyrazol-3-yl)-8,8-dimethyl-1,5,7,8-tetrahydro-imidazo[4,5-g]quinolin-6-one]: the IC50 (usually the concentration that gives 50% inhibition) was 500 to 1500 nM on Aurora A and 7650 nM with HCT 116 cells.

Take `Cc1cc(-c2nc3cc4[nH]c(=O)[nH]c4cc3[nH]2)n[nH]1` [Example 9, 6-(5-Methyl-1H-pyrazol-3-yl)-3,5-dihydro-1H-benzo[1,2-d;4,5-d′]diimidazol-2-one]: the IC50 on Aurora A was in the range of 500 to 1500 nM; with HCT 116 cells, 10000 to 100000 nM.

On to `CCCc1cc(-c2nc3cc4c(cc3[nH]2)N(CCC)C(=O)C4(C)C)[nH]n1` [Example 37, 7,7-Dimethyl-5-propyl-2-(5-propyl-2H-pyrazol-3-yl)-5,7-dihydro-3H-imidazo[4,5-f]indol-6-one], for which the results for the IC50 on Aurora A and in the experiment with HCT 116 cells were 10 to 500 nM and 100 to 10000 nM, respectively.

For `CCCN1C(=O)C(C)(C)c2cc3[nH]c(-c4cc(C)n[nH]4)nc3cc21` [Example 36, 7,7-Dimethyl-2-(5-methyl-2H-pyrazol-3-yl)-5-propyl-5,7-dihydro-1H-imidazo[4,5-f]indol-6-one], the IC50 fell in the range of 10 to 500 nM at Aurora A and 100 to 10000 nM in the experiment with HCT 116 cells.

As for `CC(C)c1cc(-c2nc3cc4c(cc3[nH]2)NC(=O)C42CCCC2)[nH]n1` [Example 28, 2-(5-Isopropyl-2H-pyrazol-3-yl)-spiro-5,7-dihydro[cyclopentane-1′,7-imidazo[4,5-f]indol]-6(3H)-one], the IC50 at Aurora A is 500 to 1500 nM; in the experiment on HCT 116 cells, 100 to 10000 nM.

On to `Cc1cc(-c2nc3cc4c(cc3[nH]2)C(C)(C)C(=O)N4C(C)C)[nH]n1` [Example 34, 5-Isopropyl-7,7-dimethyl-2-(5-methyl-2H-pyrazol-3-yl)-5,7-dihydro-1H-imidazo[4,5-f]indol-6-one], for which the figures for the IC50 on Aurora A and in the experiment with HCT 116 cells were 10 to 500 nM and 100 to 10000 nM, respectively.

`CC(C)CCc1cc(-c2nc3cc4c(cc3[nH]2)C(C)(C)C(=O)N4)n[nH]1` [Example 18, 7,7-Dimethyl-2-[5-(3-methyl-butyl)-1H-pyrazol-3-yl]-5,7-dihydro-1H-imidazo[4,5-f]indol-6-one]: the values for the IC50 on Aurora A and with HCT 116 cells were 10 to 500 nM and 100 to 10000 nM, respectively.

Consider `CC(C)Cc1cc(-c2nc3cc4c(cc3[nH]2)C(C)(C)C(=O)N4)[nH]n1` [Example 6, 2-(5-isobutyl-2H-pyrazol-3-yl)-7,7-dimethyl-5,7-dihydro-1H-imidazo[4,5-f]indol-6-one], for which the values for the IC50 at Aurora A and in the experiment with HCT 116 cells were 500 to 1500 nM and 100 to 10000 nM, respectively.

Regarding `CCCc1cc(-c2nc3cc4c(cc3[nH]2)C(C)(C)C(=O)N4C(C)C)[nH]n1` [Example 35, 5-Isopropyl-7,7-dimethyl-2-(5-propyl-2H-pyrazol-3-yl)-5,7-dihydro-1H-imidazo[4,5-f]indol-6-one], the IC50 at Aurora A fell in the range of 10 to 500 nM; in the experiment on HCT 116 cells, 100 to 10000 nM.

In the case of `CCCc1cc(-c2nc3cc4c(cc3[nH]2)NC(=O)C42CCCC2)[nH]n1` [Example 29, 2-(5-Propyl-2H-pyrazol-3-yl)-spiro-5,7-dihydro[cyclopentane-1′,7-imidazo[4,5-f]indol]-6(3H)-one], the IC50 on Aurora A was in the range of 500 to 1500 nM.

For the compound `Cc1cc(-c2nc3cc4[nH]c(=O)n(C(C)C)c4cc3[nH]2)n[nH]1` [Example 11, 3-Isopropyl-6-(5-methyl-1H-pyrazol-3-yl)-3,5-dihydro-1H-benzo[1,2-d;4,5-d′]diimidazol-2-one], the IC50 on Aurora A was 158 nM; in the experiment on HCT 116 cells, 10000 to 100000 nM.

Turning to `CCCN1C(=O)C(C)(C)c2cc3[nH]c(-c4cc(C(F)(F)F)n[nH]4)nc3cc21` [Example 41, 7,7-Dimethyl-5-propyl-2-(5-trifluoromethyl-2H-pyrazol-3-yl)-5,7-dihydro-1H-imidazo[4,5-f]indol-6-one], the half-inhibitory concentration (IC50) was 500 to 1500 nM at Aurora A and 100 to 10000 nM in the experiment with HCT 116 cells.

In the case of `Cc1cc(-c2nc3cc4c(cc3[nH]2)N(C)C(=O)C4(C)C)n[nH]1` [Example 31, 5,7,7-Trimethyl-2-(5-methyl-1H-pyrazol-3-yl)-5,7-dihydro-3H-imidazo[4,5-f]indol-6-one], the results for the IC50 on Aurora A and with HCT 116 cells were 10 to 500 nM and 100 to 10000 nM, respectively.

Consider `CC1(C)CC(=O)Nc2cc3nc(-c4cc[nH]n4)[nH]c3cc21` [Example 24, 8,8-Dimethyl-2-(1H-pyrazol-3-yl)-1,5,7,8-tetrahydro-imidazo[4,5-g]quinolin-6-one], for which the IC50 on Aurora A is 500 to 1500 nM; in the experiment with HCT 116 cells it was 100 to 10000 nM.

Regarding `O=C1Nc2cc3[nH]c(-c4ccn[nH]4)nc3cc2C12CCCC2` [Example 27, 2-(2H-pyrazol-3-yl)-spiro-5,7-dihydro[cyclopentane-1′,7-imidazo[4,5-f]indol]-6(3H)-one], the IC50 at Aurora A was in the range of 10 to 500 nM; in the experiment on HCT 116 cells, 100 to 10000 nM.

With `CCc1[nH]nc(-c2nc3cc4c(cc3[nH]2)C(C)(C)C(=O)N4)c1C` [Example 19, 2-(5-Ethyl-4-methyl-1H-pyrazol-3-yl)-7,7-dimethyl-5,7-dihydro-1H-imidazo[4,5-f]indol-6-one], the IC50 at Aurora A lay in the range of 10 to 500 nM.

The record behind these values is US7285569B2, “Tricycles, their manufacture and use as pharmaceutical agents” (Hoff Hoffmann-La Roche Inc., priority 2004, dated 2007).
